In data set [1] the target is T1, human NPP1 (Homo sapiens, UniProt P22413).
T1 construct: Human recombinant soluble NPP1 (Val191—Leu591) expressed in murine myeloma NS0 cells; His-tag (N); purchased R&D Systems GmbH (Wiesbaden, Germany); host or cells: murine myeloma NS0 cells
T1 sequence (P22413 191-591): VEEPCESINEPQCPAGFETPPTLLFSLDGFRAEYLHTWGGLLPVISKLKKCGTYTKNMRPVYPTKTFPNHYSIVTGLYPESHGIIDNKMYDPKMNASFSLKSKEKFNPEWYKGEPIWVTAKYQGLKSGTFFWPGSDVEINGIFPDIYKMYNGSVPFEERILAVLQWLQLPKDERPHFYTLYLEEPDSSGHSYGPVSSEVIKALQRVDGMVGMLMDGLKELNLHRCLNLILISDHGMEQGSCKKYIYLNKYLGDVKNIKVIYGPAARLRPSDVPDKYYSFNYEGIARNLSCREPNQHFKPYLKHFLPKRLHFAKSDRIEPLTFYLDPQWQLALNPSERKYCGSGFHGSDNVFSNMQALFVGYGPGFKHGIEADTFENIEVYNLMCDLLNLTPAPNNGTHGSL
The data set is described as follows: NPP1 inhibition vs. new artificial substrate p-Nph-5′-AMP (p-nitrophenolate at 400 nm). The format is biochemical.

In data set [2] the target is T1, human NPP1. The experiment in a line: Inhibition constants and mechanism of inhibition (Hanes-Woolf plots) compared across all investigated substrates. The format is biochemical. As to conditions: for Inhibition type: Hanes-Woolf plots, same type vs. all three substrates (ATP, p-Nph-5′-TMP, p-Nph-5′-AMP).
Data set [3] has as its target T1, human NPP1. The data set is described as follows: NPP1 inhibition vs. artificial substrate p-Nph-5′-TMP (p-nitrophenolate at 400 nm). The format is biochemical.
The target in data set [4] is T1, human NPP1. The experiment in a line: NPP1 inhibition vs. natural substrate ATP (CE, AMP quantified by UV at 260 nm). The data set is classed as biochemical.
For data set [5], the target named is T1, human NPP1. Also on record: method as in Namasivayam et al., 2017. As to conditions: substrate of NPP1; ref Namasivayam et al., 2017; cited from earlier work.
The target of data set [6] is T1, human NPP1. On the set-up: method as in Chang et al., 2014. As to conditions: more potent vs. p-Nph-5′-TMP than vs. ATP; ref Chang et al., 2014; cited from earlier work.
In a further data set the test system is NPP1. As to conditions: cited from earlier work; for Ki: vs. ATP as a substrate, ref Iqbal et al., 2008.
In data set [7] the target is T1, human NPP1. Also on record: method as in Lee and Müller, 2014. Particulars: ref Lee and Müller, 2014; cited from earlier work.
The target of data set [8] is T1, human NPP1. The experiment in a line: Enzyme kinetic parameters of NPP1 substrates. Particulars: for kcat: substrate of human NPP1, pH 9.0, 37°C. The format is biochemical. The procedure:
(§1) Enzyme kinetic parameters were measured for p-Nph-5′-TMP and p-Nph-5′-AMP, both being artificial substrates of human NPP1. Solutions with different concentrations of both substrates (ranging from 1.0 to 500 μM) were prepared in 10 mM CHES buffer (in mM: 1 MgCl2, 2 CaCl2, 10 CHES, pH 9.0) and added in a final volume of 100 μl to 96-well-plates. The enzyme reactions were initiated by the addition of 20 ng of human NPP1 (for p-Nph-5′-TMP), or 75 ng of human NPP1 (for p-Nph-5′-AMP). The mixture was incubated at 37°C for 15 min (p-Nph-5′-TMP), or 30 min (for p-Nph-5′-AMP), respectively, and subsequently terminated by the addition of 20 μl of 1.0 N aqueous NaOH solution. The amounts of p-nitrophenolate liberated were measured at 400 nm. Each analysis was repeated twice in three separate experiments.

In data set [9] the target is T1, human NPP1. As to conditions: read-out: Ki, ATP; substrate ATP; mean ± SEM; ref Lee et al., 2015; cited from earlier work.
Substrate in data set [10]: Cc1cn([C@H]2C[C@H](O)[C@@H](COP(=O)(O)Oc3ccc([N+](=O)[O-])cc3)O2)c(=O)[nH]c1=O
The experiment in a line: Enzyme kinetic parameters of NPP1 substrates. The format is biochemical. As to conditions: other: substrate of human NPP1, pH 9.0, 37°C. How it is done: as §1

Substrate in data set [11]: Nc1ncnc2c1ncn2[C@@H]1O[C@H](COP(=O)(O)Oc2ccc([N+](=O)[O-])cc2)[C@@H](O)[C@H]1O
The data set is described as follows: Enzyme kinetic parameters of NPP1 substrates. The data set is classed as biochemical. Particulars: other: substrate of human NPP1, pH 9.0, 37°C. The procedure:
as §1

The mark [12] stands for this setting: substrate p-Nph-5′-AMP, mean ± SD of three independent experiments, read-out: Ki ± SD, p-Nph-5′-AMP.
Where [13] appears, read: substrate p-Nph-5′-TMP, mean ± SD of three independent experiments, read-out: Ki ± SD, p-Nph-5′-TMP.

Where two headings read alike, the source gives them in different places. Marks after values point to notes of the source that are not given here.

A word on the Ki: it is the equilibrium dissociation constant of an inhibitor or competing ligand from its target. As for `CSc1nc(N)c2ncn([C@@H]3O[C@H](COP(=O)(O)OP(=O)(O)O)[C@@H](O)[C@H]3O)c2n1` [2-MeSADP, 2-methylthio-adenosine 5′-diphosphate], the Ki turned out to be 35.4 ± 6.4 µM at human NPP1 [1] (setting [12]), 2.18 ± 0.29 µM on human NPP1 [3] (setting [13]) and 32.8 ± 7 µM on human NPP1 [4]. The Inhibition type result on human NPP1 [2] is “Competitive”.

Consider `CSc1nc(N)c2ncn([C@@H]3O[C@H](COP(=O)(O)OP(=O)(O)OP(=O)(O)O)[C@@H](O)[C@H]3O)c2n1` [2-MeSATP, 2-methylthio-adenosine 5′-triphosphate], for which the results for the Ki on human NPP1 [1] (setting [12]), on human NPP1 [3] (setting [13]) and at human NPP1 [4] were 39.9 ± 6.9 µM, 4.47 ± 0.66 µM and 25.3 ± 5.9 µM, respectively. Also, on human NPP1 [2], the Inhibition type entry is recorded as “Competitive”.

The kcat is the maximal rate divided by the concentration of active sites. `Nc1ncnc2c1ncn2[C@@H]1O[C@H](COP(=O)(O)OP(=O)(O)OP(=O)(O)O)[C@@H](O)[C@H]1O` [ATP, adenosine 5′-triphosphate]: the turnover number (kcat) on human NPP1 [5] was 5.51 s⁻¹.

On to `COc1ccc(NC(=O)CSc2nc3c(N)ncnc3[nH]2)cc1OC` [PZB08513136A, 2-(6-Amino-9H-purin-8-ylthio)-N-(3,4-dimethoxyphenyl)acetamide], for which the inhibitory constant (Ki) on human NPP1 [1] (setting [12]) was determined as 14.9 ± 0.8 µM. Also, the Inhibition type entry at human NPP1 [2] is on record as “Competitive”. Also, the “fold difference in potency, p-Nph-5′-TMP vs. ATP as substrate” value on human NPP1 [6] is “more than 100 fold”.

The term IC50 denotes the concentration that inhibits the measured activity by half. For `COc1cc2ncnc(N3CCC(CCNS(N)(=O)=O)CC3)c2cc1OC` [SAR 03004, N-[2-[1-(6,7-Dimethoxyquinazolin-4-yl)piperidin-4-yl]ethyl]sulfuric diamide], the IC50 in the data set on NPP1 (ATP as a substrate, ref Patel et al., 2009) is […]. In addition, the Inhibition type entry at human NPP1 [2] is on record as “Competitive”.

For `Nc1ncnc2c1ncn2[C@@H](C=O)O[C@@H](C=O)COP(=O)(O)OP(=O)(O)O` [dialADP, Adenosine 5′-diphosphate-2′,3′-dialdehyde], the inhibitory constant (Ki) is 5.09 ± 1.72 µM on human NPP1 [1] (setting [12]), approximately 5 µM on human NPP1 [2], 5.03 ± 0.15 µM at human NPP1 [3] (setting [13]) and 5.62 ± 1.23 µM at human NPP1 [4]. Also, at human NPP1 [7], the “manner of NPP1 inhibition” value was “non-competitive”. In addition, the Inhibition type entry on human NPP1 [2] was “Non-competitive”.

For the molecule `Nc1ncnc2c1ncn2[C@@H](C=O)O[C@@H](C=O)COP(=O)(O)OP(=O)(O)OP(=O)(O)O` [dialATP, adenosine 5′-triphosphate-2′,3′-dialdehyde], the “αKi ± SD, p-Nph-5′-AMP” value at human NPP1 [1] (αKi-value (un-competitive inhibitor), substrate p-Nph-5′-AMP, mean ± SD of three independent experiments) is listed as 5.08 ± 0.33^b μM. In addition, the “manner of NPP1 inhibition” value on human NPP1 [7] is reported as “uncompetitive”. Moreover, on human NPP1 [2], the inhibition constant Ki is approximately 5 µM and the Inhibition type entry is “Un-competitive”. Moreover, at human NPP1 [3] (αKi-value (un-competitive inhibitor), substrate p-Nph-5′-TMP, mean ± SD of three independent experiments), the “αKi ± SD, p-Nph-5′-TMP” value is 4.09 ± 0.41^b μM. Also, the “αKi ± SD, ATP” value on human NPP1 [4] (αKi-value (un-competitive inhibitor), substrate ATP, mean ± SD of three independent experiments) was 6.82 ± 1.01^b μM.

`Nc1ncnc2c1ncn2[C@@H]1O[C@H](COP(=O)(O)Oc2ccc([N+](=O)[O-])cc2)[C@@H](O)[C@H]1O` [p-Nph-5′-AMP, p-nitrophenyl 5′-adenosine monophosphate]: the “Km-value fold higher than that for ATP” value at human NPP1 [8] (compared to natural substrate ATP) is on record as more than 20 fold. Further, on human NPP1 [8], the kcat was 2.51 s⁻¹.

With `Cc1cn([C@H]2C[C@H](O)[C@@H](COP(=O)(O)Oc3ccc([N+](=O)[O-])cc3)O2)c(=O)[nH]c1=O` [p-Nph-5′-TMP, p-Nitrophenyl 5′-thymidine monophosphate], at human NPP1 [8] (compared to p-Nph-5′-AMP), the “kcat-value fold higher than that for p-Nph-5′-AMP” value is on record as approximately 10 fold. For the same molecule, at human NPP1 [8], the kcat was 22.3 s⁻¹.

Turning to `Nc1c(S(=O)(=O)O)cc(Nc2ccc(Nc3nc(Cl)nc(Nc4cccc(S(=O)(=O)O)c4)n3)c(S(=O)(=O)O)c2)c2c1C(=O)c1ccccc1C2=O` [reactive blue 2], the Ki was 0.176 ± 0.025 µM at human NPP1 [1], 0.52 µM on NPP1, 0.198 ± 0.034 µM at human NPP1 [3] and 0.141 ± 0.031 µM at human NPP1 [4]. For the same molecule, at human NPP1 [2], the Inhibition type entry was “Non-competitive”.

On to `Cc1ccc(C(=O)Nc2ccc(S(=O)(=O)O)c3cc(S(=O)(=O)O)cc(S(=O)(=O)O)c23)cc1NC(=O)c1cccc(NC(=O)Nc2cccc(C(=O)Nc3cc(C(=O)Nc4ccc(S(=O)(=O)O)c5cc(S(=O)(=O)O)cc(S(=O)(=O)O)c45)ccc3C)c2)c1` [suramin], for which the Ki on NPP1 is 0.26 µM.

In the case of `Nc1ncnc2c1ncn2[C@@H]1O[C@H](COP(=O)(O)CP(=O)(O)O)[C@@H](O)[C@H]1O` [α,β-metADP, adenosine 5′-(α,β-methylene)diphosphate], the inhibition constant (Ki) on human NPP1 [1] amounted to 25.8 ± 4.1 µM; at human NPP1 [3] it was 1.28 ± 0.16 µM; at human NPP1 [4] it was 16.5 ± 3.1 µM. For the same molecule, on human NPP1 [2], the Inhibition type entry is listed as “Competitive”.

Turning to `Nc1ncnc2c1ncn2[C@@H]1O[C@H](COP(=O)(O)CP(=O)(O)OP(=O)(O)O)[C@@H](O)[C@H]1O` [α,β-metATP, adenosine 5′-(α,β-methylene)triphosphate], the Inhibition type result at human NPP1 [2] is “Competitive”.

With [TiW11CoO40]^8−, the Ki at human NPP1 [1] (setting [12]) is 0.00174 ± 0.00099 µM; on human NPP1 [3] (setting [13]), 0.00199 ± 0.00033 µM; at human NPP1 [9], 0.00146 ± 1e-05 µM. Besides, the Inhibition type result at human NPP1 [2] was “Non-competitive”.

B1: human NPP1 (Homo sapiens) (protein)
chain: T1 sequence (P22413 191-591)
notes: Human recombinant soluble NPP1 (Val191—Leu591) expressed in murine myeloma NS0 cells; His-tag (N); purchased R&D Systems GmbH (Wiesbaden, Germany); host or cells: murine myeloma NS0 cells
The term Km denotes the substrate concentration at which the rate is half of its maximum. The kcat/Km is the second-order rate constant that governs catalysis at low substrate concentration. In the case of B1, the Km in data set [10] is 222 µM. For the same molecule, in data set [11], the Michaelis-Menten constant (Km) turned out to be 188 µM, the catalytic constant (kcat) came to 2.51 s⁻¹ and the specificity constant (kcat/Km) turned out to be 13400 M⁻¹ s⁻¹.
